Source: ChEMBL document CHEMBL5543142, “Discovery of YFJ-36: Design, Synthesis, and Antibacterial Activities of Catechol-Conjugated β-Lactams against Gram-Negative Bacteria” (J Med Chem, 2024)

Legend:
[1] = AUC (0 to infinity) in ICR mouse at 20 mg/kg,iv administration measured upto 4 hrs by LC-MS/MS analysis; format: ADME, organism-based; conditions: in vivo
[2] = Clearance in ICR mouse at 20 mg/kg,iv administration measured upto 4 hrs by LC-MS/MS analysis; format: ADME, organism-based; conditions: in vivo
[3] = Half life in ICR mouse at 20 mg/kg,iv administration measured upto 4 hrs by LC-MS/MS analysis; format: ADME, organism-based; conditions: in vivo
[4] = MRT in ICR mouse at 20 mg/kg,iv administration measured upto 4 hrs by LC-MS/MS analysis; format: ADME, organism-based; conditions: in vivo
[5] = Volume of distribution at steady state in ICR mouse at 20 mg/kg,iv administration measured upto 4 hrs by LC-MS/MS analysis; format: ADME, organism-based; conditions: in vivo, read-out: Vdss
Escherichia coli [6] = assay: Antibacterial activity against ESBL-producing multidrug-resistant Escherichia coli clinical isolate 14-1 assessed as inhibition of bacterial growth incubated for 18 to 20 hrs by two fold serial dilution assay; format: functional; conditions: time 18-20 hrs
Escherichia coli [7] = assay: Antibacterial activity against ESBL-producing multidrug-resistant Escherichia coli clinical isolate 14-2 assessed as inhibition of bacterial growth incubated for 18 to 20 hrs by two fold serial dilution assay; format: functional; conditions: time 18-20 hrs
Escherichia coli [8] = assay: Antibacterial activity against ESBL-producing multidrug-resistant Escherichia coli clinical isolate 14-4 assessed as inhibition of bacterial growth incubated for 18 to 20 hrs by two fold serial dilution assay; format: functional; conditions: time 18-20 hrs
Klebsiella pneumoniae [9] = assay: Antibacterial activity against KPC-2 producing multidrug-resistant Klebsiella pneumoniae clinical isolate 15-1 assessed as inhibition of bacterial growth incubated for 18 to 20 hrs by two fold serial dilution assay; format: functional; conditions: time 18-20 hrs
Klebsiella pneumoniae [10] = assay: Antibacterial activity against KPC-2 producing multidrug-resistant Klebsiella pneumoniae clinical isolate 15-2 assessed as inhibition of bacterial growth incubated for 18 to 20 hrs by two fold serial dilution assay; format: functional; conditions: time 18-20 hrs
Klebsiella pneumoniae [11] = assay: Antibacterial activity against KPC-2 producing multidrug-resistant Klebsiella pneumoniae clinical isolate 15-5 assessed as inhibition of bacterial growth incubated for 18 to 20 hrs by two fold serial dilution assay; format: functional; conditions: time 18-20 hrs
Escherichia coli [12] = assay: Antibacterial activity against Escherichia coli ATCC35218 assessed as inhibition of bacterial growth incubated for 18 to 20 hrs by two fold serial dilution assay; format: functional; conditions: time 18-20 hrs
Pseudomonas aeruginosa [13] = assay: Antibacterial activity against IMP-4 producing multidrug-resistant Pseudomonas aeruginosa clinical isolate 17-13 assessed as inhibition of bacterial growth incubated for 18 to 20 hrs by two fold serial dilution assay; format: functional; conditions: time 18-20 hrs
Pseudomonas aeruginosa [14] = assay: Antibacterial activity against IMP-4 producing multidrug-resistant Pseudomonas aeruginosa clinical isolate 17-1 assessed as inhibition of bacterial growth incubated for 18 to 20 hrs by two fold serial dilution assay; format: functional; conditions: time 18-20 hrs
Pseudomonas aeruginosa [15] = assay: Antibacterial activity against IMP-4 producing multidrug-resistant Pseudomonas aeruginosa clinical isolate 19-17 assessed as inhibition of bacterial growth incubated for 18 to 20 hrs by two fold serial dilution assay; format: functional; conditions: time 18-20 hrs
Acinetobacter baumannii [16] = assay: Antibacterial activity against OXA-23 producing multidrug-resistant Acinetobacter baumannii clinical isolate 17-2 assessed as inhibition of bacterial growth incubated for 18 to 20 hrs by two fold serial dilution assay; format: functional; conditions: time 18-20 hrs
Acinetobacter baumannii [17] = assay: Antibacterial activity against OXA-23 producing multidrug-resistant Acinetobacter baumannii clinical isolate 17-3 assessed as inhibition of bacterial growth incubated for 18 to 20 hrs by two fold serial dilution assay; format: functional; conditions: time 18-20 hrs
Pseudomonas aeruginosa [18] = assay: Antibacterial activity against IMP-4 producing multidrug-resistant Pseudomonas aeruginosa clinical isolate 19-5 assessed as inhibition of bacterial growth incubated for 18 to 20 hrs by two fold serial dilution assay; format: functional; conditions: time 18-20 hrs
Pseudomonas aeruginosa [19] = assay: Antibacterial activity against IMP-4 producing multidrug-resistant Pseudomonas aeruginosa clinical isolate 19-1 assessed as inhibition of bacterial growth incubated for 18 to 20 hrs by two fold serial dilution assay; format: functional; conditions: time 18-20 hrs
Acinetobacter baumannii [20] = assay: Antibacterial activity against OXA-23 producing multidrug-resistant Acinetobacter baumannii clinical isolate 17-5 assessed as inhibition of bacterial growth incubated for 18 to 20 hrs by two fold serial dilution assay; format: functional; conditions: time 18-20 hrs
Acinetobacter baumannii [21] = assay: Antibacterial activity against OXA-23 producing multidrug-resistant Acinetobacter baumannii clinical isolate 17-6 assessed as inhibition of bacterial growth incubated for 18 to 20 hrs by two fold serial dilution assay; format: functional; conditions: time 18-20 hrs
Acinetobacter baumannii [22] = assay: Antibacterial activity against OXA-23 producing multidrug-resistant Acinetobacter baumannii clinical isolate 17-7 assessed as inhibition of bacterial growth incubated for 18 to 20 hrs by two fold serial dilution assay; format: functional; conditions: time 18-20 hrs
Acinetobacter baumannii [23] = assay: Antibacterial activity against OXA-23 producing multidrug-resistant Acinetobacter baumannii clinical isolate 17-8 assessed as inhibition of bacterial growth incubated for 18 to 20 hrs by two fold serial dilution assay; format: functional; conditions: time 18-20 hrs
Klebsiella pneumoniae [24] = assay: Antibacterial activity against KPC-2 producing multidrug-resistant Klebsiella pneumoniae clinical isolate 15-3 assessed as inhibition of bacterial growth incubated for 18 to 20 hrs by two fold serial dilution assay; format: functional; conditions: time 18-20 hrs
Escherichia coli [25] = assay: Antibacterial activity against Escherichia coli NCTC-13353 assessed as inhibition of bacterial growth incubated for 18 to 20 hrs in presence of CAMHB medium by two fold serial dilution assay; format: functional; conditions: time 18-20 hrs
Escherichia coli [26] = assay: Antibacterial activity against Escherichia coli ATCC-35218 assessed as inhibition of bacterial growth incubated for 18 to 20 hrs in presence of CAMHB medium by two fold serial dilution assay; format: functional; conditions: time 18-20 hrs
Klebsiella pneumoniae [27] = assay: Antibacterial activity against Klebsiella pneumoniae ATCC BAA-1898 assessed as inhibition of bacterial growth incubated for 18 to 20 hrs in presence of CAMHB medium by two fold serial dilution assay; format: functional; conditions: time 18-20 hrs
Escherichia coli [28] = assay: Antibacterial activity against Escherichia coli NCTC-13353 assessed as inhibition of bacterial growth incubated for 18 to 20 hrs in presence of iron-depleted CAMHB medium by two fold serial dilution assay; format: functional; conditions: time 18-20 hrs
Escherichia coli [29] = assay: Antibacterial activity against Escherichia coli ATCC-35218 assessed as inhibition of bacterial growth incubated for 18 to 20 hrs in presence of iron-depleted CAMHB medium by two fold serial dilution assay; format: functional; conditions: time 18-20 hrs
Klebsiella pneumoniae [30] = assay: Antibacterial activity against Klebsiella pneumoniae ATCC BAA-1898 assessed as inhibition of bacterial growth incubated for 18 to 20 hrs in presence of iron-depleted CAMHB medium by two fold serial dilution assay; format: functional; conditions: time 18-20 hrs
Escherichia coli [31] = assay: Antibacterial activity against Escherichia coli ATCC-35218 infected in ICR mouse assessed as inhibition of bacterial growth at iv after 1 and 5 hour of post-infection measured after 7 days; format: functional; conditions: ATCC-35218, 168 h, time 7 day
Acinetobacter baumannii [32] = assay: Antibacterial activity against multidrug-resistant Acinetobacter baumannii BM-2023-D2-010 infected in ICR mouse assessed as inhibition of bacterial growth at iv after 1 and 5 hour of post-infection measured after 7 days; format: functional; conditions: BM-2023-D2-010, 168 h, time 7 day
[33] = Plasma protein binding in mouse incubated for 35 mins by LC-MS/MS analysis; format: ADME, cell-free; conditions: read-out: PPB (converted)
hERG (KCNH2) = hERG (KCNH2) (Homo sapiens, UniProt Q12809); assay: Inhibition of hERG at 40 uM by whole cell Qpatch assay relative to control; format: toxicity
Sequence of hERG (KCNH2) (Q12809 whole entry): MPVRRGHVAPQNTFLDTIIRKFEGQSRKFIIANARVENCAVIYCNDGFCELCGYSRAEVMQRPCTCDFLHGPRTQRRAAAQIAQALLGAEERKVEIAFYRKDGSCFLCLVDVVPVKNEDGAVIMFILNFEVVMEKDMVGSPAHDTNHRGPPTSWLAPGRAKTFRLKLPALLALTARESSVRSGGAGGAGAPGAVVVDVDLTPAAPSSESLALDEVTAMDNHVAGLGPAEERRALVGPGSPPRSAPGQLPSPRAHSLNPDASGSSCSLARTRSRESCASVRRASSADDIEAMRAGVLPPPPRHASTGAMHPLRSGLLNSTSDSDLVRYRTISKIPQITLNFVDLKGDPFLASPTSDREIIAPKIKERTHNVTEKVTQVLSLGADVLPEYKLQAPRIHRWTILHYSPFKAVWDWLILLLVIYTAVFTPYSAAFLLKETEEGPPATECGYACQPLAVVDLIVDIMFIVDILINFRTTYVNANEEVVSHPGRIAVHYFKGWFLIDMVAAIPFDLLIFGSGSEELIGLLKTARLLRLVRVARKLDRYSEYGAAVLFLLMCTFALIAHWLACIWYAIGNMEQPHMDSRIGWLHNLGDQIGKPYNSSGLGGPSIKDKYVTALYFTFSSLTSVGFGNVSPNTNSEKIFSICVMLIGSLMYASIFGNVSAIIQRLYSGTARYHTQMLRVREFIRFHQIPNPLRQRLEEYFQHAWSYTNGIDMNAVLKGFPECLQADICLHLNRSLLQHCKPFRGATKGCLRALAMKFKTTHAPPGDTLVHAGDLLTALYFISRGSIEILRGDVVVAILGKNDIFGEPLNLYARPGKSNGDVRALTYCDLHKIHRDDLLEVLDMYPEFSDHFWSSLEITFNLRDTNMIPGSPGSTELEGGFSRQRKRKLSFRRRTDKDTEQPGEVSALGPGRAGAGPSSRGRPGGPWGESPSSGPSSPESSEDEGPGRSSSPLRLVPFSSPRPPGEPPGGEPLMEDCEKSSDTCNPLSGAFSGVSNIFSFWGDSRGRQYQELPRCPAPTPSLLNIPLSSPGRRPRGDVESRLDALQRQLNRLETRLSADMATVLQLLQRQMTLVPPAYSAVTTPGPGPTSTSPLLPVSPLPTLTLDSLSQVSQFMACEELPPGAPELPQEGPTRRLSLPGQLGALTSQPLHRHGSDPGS

[34] = target: Voltage-gated inwardly rectifying potassium channel KCNH2 (Homo sapiens, UniProt Q12809); assay: Inhibition of hERG by whole cell Qpatch assay; format: toxicity
Sequence of Voltage-gated inwardly rectifying potassium channel KCNH2 (Q12809 whole entry): as above

Acinetobacter baumannii [35] = assay: Antibacterial activity against multidrug-resistant Acinetobacter baumannii BM-2023-D2-010 infected in ICR mouse assessed as inhibition of bacterial growth by measuring its effective dose at iv after 1 and 5 hour of post-infection measured after 7 days; format: functional; conditions: BM-2023-D2-010, 168 h, time 7 day

## Cc1ccc(S(=O)(=O)O)cc1.Nc1nc(/C(=N/O[C@@H](C(=O)O)C2CCC(F)(F)CC2)C(=O)N[C@@H]2C(=O)N3C(C(=O)O)=C(CSCCNC(=O)c4ccc(O)c(O)c4Cl)CS[C@H]23)cs1
[1]
  AUC(0-inf): 2160 ng·h/mL
[2]
  clearance: 160 mL/min/kg
[3]
  half-life: 19.8 min
[4]
  MRT: 9 min
[5]
  Vd: 1.44 L/kg

## Nc1nc(/C(=N/O[C@@H](C(=O)O)C2CCC(F)(F)CC2)C(=O)N[C@@H]2C(=O)N3C(C(=O)O)=C(CSCCNC(=O)c4ccc(O)c(O)c4Cl)CS[C@H]23)cs1.O=C(O)C(F)(F)F
Escherichia coli [6]
  MIC: 0.25 µg/mL
Escherichia coli [7]
  MIC: 0.5 µg/mL
Escherichia coli [8]
  MIC: 0.125 µg/mL
Klebsiella pneumoniae [9]
  MIC: 0.25 µg/mL
Klebsiella pneumoniae [10]
  MIC: 0.25 µg/mL
Klebsiella pneumoniae [11]
  MIC: 0.5 µg/mL
Escherichia coli [12]
  MIC: 0.25 µg/mL
Pseudomonas aeruginosa [13]
  MIC: ≤ 0.03 µg/mL
Pseudomonas aeruginosa [14]
  MIC: 8 µg/mL
Pseudomonas aeruginosa [15]
  MIC: 0.25 µg/mL
Acinetobacter baumannii [16]
  MIC: 0.5 µg/mL
Acinetobacter baumannii [17]
  MIC: 0.25 µg/mL
Pseudomonas aeruginosa [18]
  MIC: 1 µg/mL
Pseudomonas aeruginosa [19]
  MIC: 2 µg/mL
Acinetobacter baumannii [20]
  MIC: 0.25 µg/mL
Acinetobacter baumannii [21]
  MIC: 1 µg/mL
Acinetobacter baumannii [22]
  MIC: 0.5 µg/mL
Acinetobacter baumannii [23]
  MIC: 0.5 µg/mL
Klebsiella pneumoniae [24]
  MIC: 1 µg/mL
Escherichia coli [25]
  MIC: 1 µg/mL
Escherichia coli [26]
  MIC: 1 µg/mL
Klebsiella pneumoniae [27]
  MIC: 4 µg/mL
Escherichia coli [28]
  MIC: 0.25 µg/mL
Escherichia coli [29]
  MIC: ≤ 0.03 µg/mL
Klebsiella pneumoniae [30]
  MIC: 2 µg/mL
Escherichia coli [31]
  MIC: 0.06 µg/mL
Acinetobacter baumannii [32]
  MIC: 0.5 µg/mL
[33]
  fraction unbound at 35 min: 0.105
hERG (KCNH2)
  inhibition at 40 µM: 6.67%
[34]
  IC50: > 40 µM
Acinetobacter baumannii [35]
  ED50: 7.3 mg/kg
